# Reference: patent US12679802B2, “Malonamides and their use as herbicides” (BASF SE, priority 2021, dated 2026)
# Columns and labels:
# AVEFA = assay: greenhouse herbicidal test, post-emergence treatment; assay type: in vivo, Avena fatua; details: post-emergence method, scale from 0 to 100
# Description: (§1) The seeds of the test plants were sown separately for each species. For the pre-emergence treatment, the active ingredients, which had been suspended or emulsified in water, were applied directly after sowing by means of finely distributing nozzles. The containers were irrigated gently to promote germination and growth and subsequently covered with transparent plastic hoods until the test plants had rooted. This cover caused uniform germination of the test plants, unless this had been impaired by the active ingredients. For the post-emergence treatment, the test plants were first grown to a height of 3 to 15 cm, depending on the plant habit, and only then treated with the active ingredients which had been suspended or emulsified in water. For this purpose, the test plants were either sown directly and grown in the same containers, or they were first grown separately as seedlings and transplanted into the test containers a few days prior to treatment. Depending on the species, the test plants were kept at 10-25° C. or 20-35° C., respectively. The test period extended over 2 to 4 weeks. During this time, the test plants were tended, and their response to the individual treatments was evaluated. Evaluation was carried out using a scale from 0 to 100. 100 means no emergence of the test plants, or complete destruction of at least the aerial moieties, and 0 means no damage, or normal course of growth. A good herbicidal activity is given at values of 65 to 90 and a very good herbicidal activity is given at values of 90 to 100. The test plants used in the greenhouse experiments were of the following species: [table]
# APESV = assay: greenhouse herbicidal test, pre-emergence treatment; assay type: in vivo, Apera spica-venti; details: pre-emergence method, scale from 0 to 100
# Description: as §1, with “100 means no emergence of the test plants, or complete destruction of at least the aerial moieties, and 0 means no damage, or normal course of growth. A good herbicidal activity is given at values of 65 to 90 and a very good herbicidal activity is given at values of 90 to 100. The test plants used in the greenhouse experiments were of the following species: [table]” left out
# ECHCG [1] = assay: as above; assay type: in vivo, Echinocloa crus-galli; details: pre-emergence method, scale from 0 to 100
# Description: as §1, with “100 means no emergence of the test plants, or complete destruction of at least the aerial moieties, and 0 means no damage, or normal course of growth. A good herbicidal activity is given at values of 65 to 90 and a very good herbicidal activity is given at values of 90 to 100. The test plants used in the greenhouse experiments were of the following species: [table]” left out
# ALOMY = assay: greenhouse herbicidal test, post-emergence treatment; assay type: in vivo, Alopercurus myosuroides; details: post-emergence method, scale from 0 to 100
# Description: as §1, with “100 means no emergence of the test plants, or complete destruction of at least the aerial moieties, and 0 means no damage, or normal course of growth. A good herbicidal activity is given at values of 65 to 90 and a very good herbicidal activity is given at values of 90 to 100. The test plants used in the greenhouse experiments were of the following species: [table]” left out
# ABUTH = assay: as above; assay type: in vivo, Abutilon theophrasti; details: post-emergence method, application rate 0.250 kg/ha; scale from 0 to 100
# Description: as §1, with “100 means no emergence of the test plants, or complete destruction of at least the aerial moieties, and 0 means no damage, or normal course of growth. A good herbicidal activity is given at values of 65 to 90 and a very good herbicidal activity is given at values of 90 to 100. The test plants used in the greenhouse experiments were of the following species: [table]” left out
# AMARE = assay: as above; assay type: in vivo, Amaranthus retroflexus; details: post-emergence method, application rate 0.500 kg/ha; scale from 0 to 100
# Description: as §1, with “100 means no emergence of the test plants, or complete destruction of at least the aerial moieties, and 0 means no damage, or normal course of growth. A good herbicidal activity is given at values of 65 to 90 and a very good herbicidal activity is given at values of 90 to 100. The test plants used in the greenhouse experiments were of the following species: [table]” left out
# ECHCG [2] = assay: as above; assay type: in vivo, Echinocloa crus-galli; details: post-emergence method, application rate 1.000 kg/ha; scale from 0 to 100
# Description: as §1, with “100 means no emergence of the test plants, or complete destruction of at least the aerial moieties, and 0 means no damage, or normal course of growth. A good herbicidal activity is given at values of 65 to 90 and a very good herbicidal activity is given at values of 90 to 100. The test plants used in the greenhouse experiments were of the following species: [table]” left out
# SETVI = assay: as above; assay type: in vivo, Setaria viridis; details: post-emergence method, application rate 1.000 kg/ha; scale from 0 to 100
# Description: as §1, with “100 means no emergence of the test plants, or complete destruction of at least the aerial moieties, and 0 means no damage, or normal course of growth. A good herbicidal activity is given at values of 65 to 90 and a very good herbicidal activity is given at values of 90 to 100. The test plants used in the greenhouse experiments were of the following species: [table]” left out
smiles,measurement,setting,value
"COC(=O)CCCNC(=O)C(F)(F)C(=O)Nc1cc(Cl)cc(Cl)c1 [I.1, methyl 4-[[3-(3,5-dichloroanilino)-2,2-difluoro-3-oxo-propanoyl]amino]butanoate]",herbicidal activity against AVEFA,AVEFA; application rate 0.500 kg/ha,good (A good herbicidal activity is given at values of 65 to 90)
"COC(=O)C[C@H](C)NC(=O)C(F)(F)C(=O)Nc1cc(Cl)cc(Cl)c1 [I.2, methyl (3S)-3-[[3-(3,5-dichloroanilino)-2,2-difluoro-3-oxo-propanoyl]amino]butanoate]",herbicidal activity against APESV,APESV; application rate 0.500 kg/ha,good (A good herbicidal activity is given at values of 65 to 90)
"COC(=O)[C@@H]1CCC(NC(=O)C(F)(F)C(=O)Nc2cc(Cl)cc(Cl)c2)C1 (stereo partly drawn) [I.3, methyl (1R)-3-[[3-(3,5-dichloroanilino)-2,2-difluoro-3-oxo-propanoyl]amino]cyclopentanecarboxylate]",herbicidal activity against ECHCG,ECHCG [1]; application rate 0.250 kg/ha,good (A good herbicidal activity is given at values of 65 to 90)
same,herbicidal activity against ALOMY,ALOMY; application rate 0.250 kg/ha,very good (a very good herbicidal activity is given at values of 90 to 100)
same,herbicidal activity against ABUTH,ABUTH,good (A good herbicidal activity is given at values of 65 to 90)
"COC(=O)C[C@H](C)NC(=O)C(F)C(=O)Nc1cc(Cl)cc(Cl)c1 (stereo partly drawn) [I.5, methyl (3S)-3-[[3-(3,5-dichloroanilino)-2-fluoro-3-oxo-propanoyl]amino]butanoate]",herbicidal activity against AVEFA,AVEFA; application rate 1.000 kg/ha,good (A good herbicidal activity is given at values of 65 to 90)
same,herbicidal activity against ECHCG,ECHCG [1]; application rate 1.000 kg/ha,good (A good herbicidal activity is given at values of 65 to 90)
same,herbicidal activity against ALOMY,ALOMY; application rate 1.000 kg/ha,very good (a very good herbicidal activity is given at values of 90 to 100)
COC(=O)CC(C)NC(=O)C(F)(C(=O)Nc1cc(Cl)cc(Cl)c1)C(C)O (stereo not shown) [I.6],herbicidal activity against AMARE,AMARE,very good (a very good herbicidal activity is given at values of 90 to 100)
COC(=O)CC(C)NC(=O)C(F)(Br)C(=O)Nc1cc(Cl)cc(Cl)c1 (stereo not shown) [I.12],herbicidal activity against AVEFA,AVEFA; application rate 1.000 kg/ha,very good (a very good herbicidal activity is given at values of 90 to 100)
same,herbicidal activity against ECHCG,ECHCG [2],very good (a very good herbicidal activity is given at values of 90 to 100)
same,herbicidal activity against SETVI,SETVI,very good (a very good herbicidal activity is given at values of 90 to 100)
CC(CC(=O)OC(C)C)NC(=O)C(C)(F)C(=O)Nc1cc(F)cc(Cl)c1 (stereo not shown) [I.16],herbicidal activity against APESV,APESV; application rate 0.250 kg/ha,good (A good herbicidal activity is given at values of 65 to 90)
